# Legend:
# hACVRL1 = target: T1, hACVRL1 (Homo sapiens, UniProt P37023); experiment: KINOMEscan; assay type: binding
# T1 construct: purchased DiscoverX (KINOMEscan platform)
# hMAP3K15 = target: T2, hMAP3K15 (Homo sapiens, UniProt Q6ZN16); experiment: KINOMEscan; assay type: binding
# T2 construct: purchased DiscoverX (KINOMEscan platform)
# hTRβ1 = target: T3, hTRβ1 (Homo sapiens, UniProt P10828); experiment: Nuclear hormone receptor assay (Eurofins-CEREP); settings: read-out: Relative IC50
# T3 construct: Eurofins-CEREP
# hCLK3 = target: T4, hCLK3 (Homo sapiens, UniProt P49761); experiment: KINOMEscan; assay type: binding
# T4 construct: purchased DiscoverX
# hIRAK4 = target: T5, hIRAK4 (Homo sapiens, UniProt Q9NWZ3); experiment: KINOMEscan; assay type: binding
# T5 construct: purchased DiscoverX (KINOMEscan panel)
# hTLK2 = target: T6, hTLK2 (Homo sapiens, UniProt Q86UE8); experiment: KINOMEscan; assay type: binding
# T6 construct: purchased DiscoverX
# hMEK3 = target: T7, hMEK3 (Homo sapiens, UniProt P46734); experiment: KINOMEscan; assay type: binding
# T7 construct: purchased DiscoverX
# hSTK36 = target: T8, hSTK36 (Homo sapiens, UniProt Q9NRP7); experiment: KINOMEscan; assay type: binding
# T8 construct: purchased DiscoverX (KINOMEscan platform)
# hMAP4K2 = target: T9, hMAP4K2 (Homo sapiens, UniProt Q12851); experiment: KINOMEscan; assay type: binding
# T9 construct: purchased DiscoverX (KINOMEscan platform)
# hERN1 = target: T10, hERN1 (Homo sapiens, UniProt O75460); experiment: KINOMEscan; assay type: binding
# T10 construct: purchased DiscoverX
# hIGF1R = target: T11, hIGF1R (Homo sapiens, UniProt P08069); experiment: KINOMEscan; assay type: binding
# T11 construct: purchased DiscoverX (KINOMEscan panel)
# hAURKC = target: T12, hAURKC (Homo sapiens, UniProt Q9UQB9); experiment: KINOMEscan; assay type: binding
# T12 construct: purchased DiscoverX
# hERK2 = target: T13, hERK2 (Homo sapiens, UniProt P28482); experiment: KINOMEscan; assay type: binding
# T13 construct: purchased DiscoverX
# hMAPKAPK2 = target: T14, hMAPKAPK2 (Homo sapiens, UniProt P49137); experiment: KINOMEscan; assay type: binding
# T14 construct: purchased DiscoverX
# hTNNI3K = target: T15, hTNNI3K (Homo sapiens, UniProt Q59H18); experiment: KINOMEscan; assay type: binding
# T15 construct: purchased DiscoverX
# hIRAK3 = target: T16, hIRAK3 (Homo sapiens, UniProt Q9Y616); experiment: KINOMEscan; assay type: binding
# T16 construct: purchased DiscoverX (KINOMEscan panel)
# hFLT3-autoinhibited = target: T17, hFLT3-autoinhibited (Homo sapiens, UniProt P36888); experiment: KINOMEscan; assay type: binding
# T17 construct: purchased DiscoverX
# hYANK2 = target: T18, hYANK2 (Homo sapiens, UniProt Q9NY57); experiment: KINOMEscan; assay type: binding
# T18 construct: purchased DiscoverX
# hSRPK3 = target: T19, hSRPK3 (Homo sapiens, UniProt Q9UPE1); experiment: KINOMEscan; assay type: binding
# T19 construct: purchased DiscoverX (KINOMEscan platform)
# hRSK1(Kin.Dom.2-C-term) = target: T20, hRSK1(Kin.Dom.2-C-term) (Homo sapiens, UniProt Q15418); experiment: KINOMEscan; assay type: binding
# T20 construct: hRSK1(Kin.Dom.2-C-term); purchased DiscoverX (KINOMEscan platform)
# hRIPK4 = target: T21, hRIPK4 (Homo sapiens, UniProt P57078); experiment: KINOMEscan; assay type: binding
# T21 construct: purchased DiscoverX (KINOMEscan platform)
# hCDKL5 = target: T22, hCDKL5 (Homo sapiens, UniProt O76039); experiment: KINOMEscan; assay type: binding
# T22 construct: purchased DiscoverX
# hEPHA8 = target: T23, hEPHA8 (Homo sapiens, UniProt P29322); experiment: KINOMEscan; assay type: binding
# T23 construct: purchased DiscoverX
# hABL1(pF317I) = target: T24, hABL1(pF317I) (Homo sapiens, UniProt P00519, F317I); experiment: KINOMEscan; assay type: binding
# T24 construct: purchased DiscoverX (KINOMEscan platform)
# hRARγ = target: T25, hRARγ (Homo sapiens, UniProt P13631); experiment: Nuclear hormone receptor assay (Eurofins-CEREP); settings: read-out: Relative IC50
# T25 construct: Eurofins-CEREP
# hVEGFR2 = target: T26, hVEGFR2 (Homo sapiens, UniProt P35968); experiment: KINOMEscan; assay type: binding
# T26 construct: purchased DiscoverX
# [1] = target: T27, hTYK2(JH2Dom.-pseudokinase) (Homo sapiens, UniProt P29597); experiment: KINOMEscan; assay type: binding
# T27 construct: hTYK2(JH2Dom.-pseudokinase); purchased DiscoverX
# hCLK4 = target: T28, hCLK4 (Homo sapiens, UniProt Q9HAZ1); experiment: KINOMEscan; assay type: binding
# T28 construct: purchased DiscoverX (KINOMEscan platform)
# hWNK1 = target: T29, hWNK1 (Homo sapiens, UniProt Q9H4A3); experiment: KINOMEscan; assay type: binding
# T29 construct: purchased DiscoverX
# hRSK4(Kin.Dom.1-N-term) = target: T30, hRSK4(Kin.Dom.1-N-term) (Homo sapiens, UniProt Q9UK32); experiment: KINOMEscan; assay type: binding
# T30 construct: hRSK4(Kin.Dom.1-N-term); purchased DiscoverX (KINOMEscan platform)
# hMARK1 = target: T31, hMARK1 (Homo sapiens, UniProt Q9P0L2); experiment: KINOMEscan; assay type: binding
# T31 construct: purchased DiscoverX
# hJNK1 = target: T32, hJNK1 (Homo sapiens, UniProt P45983); experiment: KINOMEscan; assay type: binding
# T32 construct: purchased DiscoverX (KINOMEscan panel)
# [2] = system: lysine methylation of histone H3 or H4; experiment: Mass spectrometry proteomics of cell-derived histones, SMYD2-overexpressing KYSE-150 cells; assay type: cell-based, human; settings: 5 μM LLY-507 versus untreated cells
# Protocol: Acid-extracted histone samples were chemically derivatized using propionic anhydride and digested with trypsin for 6 h at 37 °C. The digested peptides were treated with an additional round of propionylation and desalted using a C18 extracted mini disk (Empore 3M). Approximately 1 μg of each sample was loaded via an autosampler (Eksigent NanoLC.Ultra 2D Plus) onto a homemade precolumn (3-μm particle size, 120-Å pore size) at a flow rate of 2 μl/min. Peptides were chromatographically resolved via a 75-μm reversed phase analytical column packed with C18-AQ resin (1.9-μm particle size, 120-Å pore size) using a 77-min 2–98% solvent B gradient (solvent A, 0.1% formic acid; solvent B, 100% acetonitrile) at a flow rate of 250 nl/min. The electrosprayed peptides were detected by an Orbitrap Elite^TM mass spectrometer (Thermo Fisher Scientific) with a resolution of 120,000 for full MS spectrum followed by MS/MS spectra obtained in the ion trap. The relative abundance of each modification, expressed as a percentage on a histone peptide sequence, was quantified by analyzing its MS and MS/MS spectra via Epiquant, an in-house software.
# hRSK4(Kin.Dom.2-C-term) = target: T33, hRSK4(Kin.Dom.2-C-term) (Homo sapiens, UniProt Q9UK32); experiment: KINOMEscan; assay type: binding
# T33 construct: hRSK4(Kin.Dom.2-C-term); purchased DiscoverX (KINOMEscan platform)
# T33 sequence (Q9UK32 426-683 limits assumed): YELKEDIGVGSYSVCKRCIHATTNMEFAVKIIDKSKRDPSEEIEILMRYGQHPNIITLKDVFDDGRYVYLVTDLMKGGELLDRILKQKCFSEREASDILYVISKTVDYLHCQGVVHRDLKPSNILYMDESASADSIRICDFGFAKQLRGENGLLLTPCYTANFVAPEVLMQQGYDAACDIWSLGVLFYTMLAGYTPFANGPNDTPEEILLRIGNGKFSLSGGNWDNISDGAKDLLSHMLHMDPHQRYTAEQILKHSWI
# T14 sequence (P49137 whole entry): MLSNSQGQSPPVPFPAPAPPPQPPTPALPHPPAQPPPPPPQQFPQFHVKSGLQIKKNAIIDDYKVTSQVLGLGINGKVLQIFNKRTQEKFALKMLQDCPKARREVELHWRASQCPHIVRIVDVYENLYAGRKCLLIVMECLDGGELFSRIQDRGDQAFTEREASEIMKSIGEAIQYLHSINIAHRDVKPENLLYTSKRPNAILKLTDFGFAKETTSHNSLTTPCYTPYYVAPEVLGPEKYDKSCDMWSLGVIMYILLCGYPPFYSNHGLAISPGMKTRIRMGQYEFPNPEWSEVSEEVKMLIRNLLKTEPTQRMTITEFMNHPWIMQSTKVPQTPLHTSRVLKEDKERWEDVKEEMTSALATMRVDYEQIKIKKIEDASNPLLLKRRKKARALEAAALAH
# T16 sequence (Q9Y616 whole entry): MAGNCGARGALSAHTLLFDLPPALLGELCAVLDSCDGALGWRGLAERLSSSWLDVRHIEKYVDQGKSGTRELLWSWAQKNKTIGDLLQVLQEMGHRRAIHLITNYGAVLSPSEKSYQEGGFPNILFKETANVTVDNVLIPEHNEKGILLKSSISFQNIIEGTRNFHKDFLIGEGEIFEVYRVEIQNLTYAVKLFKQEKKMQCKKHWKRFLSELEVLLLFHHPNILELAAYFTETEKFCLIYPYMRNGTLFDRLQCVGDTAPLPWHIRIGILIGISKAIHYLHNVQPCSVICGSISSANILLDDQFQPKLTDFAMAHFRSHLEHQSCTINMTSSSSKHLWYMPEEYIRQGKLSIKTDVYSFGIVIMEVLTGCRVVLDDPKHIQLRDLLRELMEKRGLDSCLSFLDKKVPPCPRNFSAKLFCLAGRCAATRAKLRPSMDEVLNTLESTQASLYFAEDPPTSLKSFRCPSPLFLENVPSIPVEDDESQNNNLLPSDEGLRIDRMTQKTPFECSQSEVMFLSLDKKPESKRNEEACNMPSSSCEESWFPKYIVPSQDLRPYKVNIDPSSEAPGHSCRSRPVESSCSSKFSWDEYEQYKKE
# T25 sequence (P13631 whole entry): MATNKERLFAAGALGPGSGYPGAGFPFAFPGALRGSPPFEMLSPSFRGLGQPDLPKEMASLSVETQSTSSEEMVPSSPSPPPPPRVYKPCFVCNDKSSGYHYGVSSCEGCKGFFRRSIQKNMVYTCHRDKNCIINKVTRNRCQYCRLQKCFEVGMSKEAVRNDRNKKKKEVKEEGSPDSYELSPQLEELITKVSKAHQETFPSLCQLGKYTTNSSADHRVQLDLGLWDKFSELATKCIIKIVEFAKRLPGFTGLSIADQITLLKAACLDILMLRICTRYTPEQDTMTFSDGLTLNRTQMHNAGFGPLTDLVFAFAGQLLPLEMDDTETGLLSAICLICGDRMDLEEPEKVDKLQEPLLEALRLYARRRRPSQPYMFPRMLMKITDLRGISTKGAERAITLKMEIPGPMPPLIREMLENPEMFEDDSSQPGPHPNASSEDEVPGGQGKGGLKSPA
# T32 sequence (P45983 whole entry): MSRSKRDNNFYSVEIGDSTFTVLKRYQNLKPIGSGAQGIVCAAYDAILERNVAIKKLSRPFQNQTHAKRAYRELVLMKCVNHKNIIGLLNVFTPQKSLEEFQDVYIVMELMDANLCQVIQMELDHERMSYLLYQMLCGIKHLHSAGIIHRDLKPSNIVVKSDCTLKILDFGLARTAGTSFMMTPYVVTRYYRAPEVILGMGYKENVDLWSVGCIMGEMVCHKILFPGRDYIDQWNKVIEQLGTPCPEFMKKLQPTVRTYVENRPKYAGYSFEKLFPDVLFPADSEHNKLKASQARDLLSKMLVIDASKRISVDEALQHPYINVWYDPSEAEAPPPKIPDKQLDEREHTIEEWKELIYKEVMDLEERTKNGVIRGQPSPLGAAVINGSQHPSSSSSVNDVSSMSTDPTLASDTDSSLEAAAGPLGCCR
# T23 sequence (P29322 28-1005): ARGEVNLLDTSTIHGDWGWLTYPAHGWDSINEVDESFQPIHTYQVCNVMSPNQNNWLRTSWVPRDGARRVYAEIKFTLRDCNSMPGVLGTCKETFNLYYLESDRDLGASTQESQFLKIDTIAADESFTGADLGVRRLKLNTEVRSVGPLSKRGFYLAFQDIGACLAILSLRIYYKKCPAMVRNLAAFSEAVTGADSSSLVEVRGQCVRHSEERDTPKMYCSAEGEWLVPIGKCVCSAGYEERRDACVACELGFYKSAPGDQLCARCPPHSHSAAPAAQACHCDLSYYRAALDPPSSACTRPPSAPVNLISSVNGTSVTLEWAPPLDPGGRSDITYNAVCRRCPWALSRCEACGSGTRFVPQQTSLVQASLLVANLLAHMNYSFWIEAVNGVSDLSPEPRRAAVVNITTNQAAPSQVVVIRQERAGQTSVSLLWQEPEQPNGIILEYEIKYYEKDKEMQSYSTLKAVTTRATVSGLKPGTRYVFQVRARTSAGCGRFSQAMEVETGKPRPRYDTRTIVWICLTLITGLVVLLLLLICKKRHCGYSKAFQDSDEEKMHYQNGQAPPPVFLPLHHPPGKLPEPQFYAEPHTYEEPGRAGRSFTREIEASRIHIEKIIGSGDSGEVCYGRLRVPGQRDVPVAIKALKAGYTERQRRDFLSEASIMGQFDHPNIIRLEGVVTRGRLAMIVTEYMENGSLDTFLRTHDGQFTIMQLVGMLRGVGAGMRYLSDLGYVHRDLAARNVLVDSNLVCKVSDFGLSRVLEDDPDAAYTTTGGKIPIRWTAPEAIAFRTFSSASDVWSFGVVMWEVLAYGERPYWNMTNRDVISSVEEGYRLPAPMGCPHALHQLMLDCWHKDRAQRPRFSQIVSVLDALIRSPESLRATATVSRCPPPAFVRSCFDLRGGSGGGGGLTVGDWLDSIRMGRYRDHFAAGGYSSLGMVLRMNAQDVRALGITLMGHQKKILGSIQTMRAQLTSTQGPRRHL
# T27 sequence (P29597 589-875 limits assumed): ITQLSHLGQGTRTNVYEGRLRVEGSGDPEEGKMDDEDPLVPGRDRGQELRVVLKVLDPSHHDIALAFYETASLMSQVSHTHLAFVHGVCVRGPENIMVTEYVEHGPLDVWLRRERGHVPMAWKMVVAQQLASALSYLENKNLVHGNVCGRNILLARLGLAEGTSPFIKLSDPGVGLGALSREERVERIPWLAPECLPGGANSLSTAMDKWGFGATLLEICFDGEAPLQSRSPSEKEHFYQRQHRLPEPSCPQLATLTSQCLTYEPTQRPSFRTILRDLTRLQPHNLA
# T10 sequence (O75460 19-977): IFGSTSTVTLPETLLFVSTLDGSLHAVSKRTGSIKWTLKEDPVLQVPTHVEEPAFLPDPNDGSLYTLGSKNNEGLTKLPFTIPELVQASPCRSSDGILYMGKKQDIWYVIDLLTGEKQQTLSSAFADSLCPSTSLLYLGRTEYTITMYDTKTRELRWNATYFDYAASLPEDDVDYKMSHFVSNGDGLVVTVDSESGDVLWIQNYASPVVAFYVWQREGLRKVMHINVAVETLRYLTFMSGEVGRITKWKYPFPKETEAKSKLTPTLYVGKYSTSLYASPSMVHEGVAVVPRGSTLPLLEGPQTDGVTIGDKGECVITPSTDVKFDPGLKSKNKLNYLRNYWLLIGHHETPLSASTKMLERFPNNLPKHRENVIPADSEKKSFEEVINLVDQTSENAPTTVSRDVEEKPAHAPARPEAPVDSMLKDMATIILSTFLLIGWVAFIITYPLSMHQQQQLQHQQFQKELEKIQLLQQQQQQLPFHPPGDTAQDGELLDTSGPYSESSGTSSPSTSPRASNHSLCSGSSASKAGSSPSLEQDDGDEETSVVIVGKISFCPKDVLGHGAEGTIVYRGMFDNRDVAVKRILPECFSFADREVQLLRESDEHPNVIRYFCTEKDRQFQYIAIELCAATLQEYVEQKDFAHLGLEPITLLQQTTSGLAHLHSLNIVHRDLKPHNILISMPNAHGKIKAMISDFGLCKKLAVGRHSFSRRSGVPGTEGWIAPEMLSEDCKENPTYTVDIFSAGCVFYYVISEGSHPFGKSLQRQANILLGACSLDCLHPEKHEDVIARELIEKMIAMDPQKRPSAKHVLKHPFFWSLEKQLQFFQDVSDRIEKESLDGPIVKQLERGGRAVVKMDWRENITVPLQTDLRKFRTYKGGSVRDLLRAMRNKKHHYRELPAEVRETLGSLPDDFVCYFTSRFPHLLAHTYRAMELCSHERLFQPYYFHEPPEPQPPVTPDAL
# T7 sequence (P46734 whole entry): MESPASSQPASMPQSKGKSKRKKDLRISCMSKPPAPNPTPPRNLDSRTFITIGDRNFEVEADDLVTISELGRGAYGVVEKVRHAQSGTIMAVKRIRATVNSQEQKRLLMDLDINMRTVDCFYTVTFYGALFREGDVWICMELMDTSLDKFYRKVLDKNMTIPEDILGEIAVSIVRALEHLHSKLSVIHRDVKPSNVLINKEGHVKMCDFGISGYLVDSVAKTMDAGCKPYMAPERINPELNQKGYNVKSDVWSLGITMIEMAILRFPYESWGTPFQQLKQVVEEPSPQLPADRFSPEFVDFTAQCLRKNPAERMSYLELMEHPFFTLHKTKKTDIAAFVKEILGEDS
# T20 sequence (Q15418 418-675 limits assumed): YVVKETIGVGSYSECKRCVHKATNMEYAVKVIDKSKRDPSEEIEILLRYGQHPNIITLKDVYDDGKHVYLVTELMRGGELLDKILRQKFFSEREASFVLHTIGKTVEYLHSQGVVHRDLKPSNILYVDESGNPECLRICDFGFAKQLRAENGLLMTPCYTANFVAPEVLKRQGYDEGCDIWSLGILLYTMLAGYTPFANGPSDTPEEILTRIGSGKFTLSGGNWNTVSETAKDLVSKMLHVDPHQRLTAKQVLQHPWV
structure (smiles),measurement,setting,value
"Cc1cn(CCN2CCN(c3ccccc3-c3cc(C#N)cc(C(=O)NCCCN4CCCC4)c3)CC2)c2ccccc12 [LLY-507, 3-cyano-5-{2-[4-[2-(3-methylindol-1-yl)ethyl]piperazin-1-yl]-phenyl}-N-[(3-pyrrolidin-1-yl)propyl]benzamide]",IC50,hACVRL1,> 20 µM
same,IC50,hMAP3K15,> 20 µM
same,IC50,hTRβ1,> 10 µM
same,IC50,hCLK3,> 20 µM
same,IC50,hIRAK4,> 20 µM
same,IC50,hTLK2,> 20 µM
same,IC50,hMEK3,> 20 µM
same,IC50,hSTK36,> 20 µM
same,IC50,hMAP4K2,> 20 µM
same,IC50,hERN1,> 20 µM
same,IC50,hIGF1R,> 20 µM
same,IC50,hAURKC,> 20 µM
same,IC50,hERK2,> 20 µM
same,IC50,hMAPKAPK2,> 20 µM
same,IC50,hTNNI3K,> 20 µM
same,IC50,hIRAK3,> 20 µM
same,IC50,hFLT3-autoinhibited,> 20 µM
same,IC50,hYANK2,> 20 µM
same,IC50,hSRPK3,> 20 µM
same,IC50,hRSK1(Kin.Dom.2-C-term),> 20 µM
same,IC50,hRIPK4,> 20 µM
same,IC50,hCDKL5,> 20 µM
same,IC50,hEPHA8,> 20 µM
same,IC50,hABL1(pF317I),> 20 µM
same,IC50,hRARγ,> 10 µM
same,IC50,hVEGFR2,> 20 µM
same,IC50,[1],> 20 µM
same,IC50,hCLK4,> 20 µM
same,IC50,hWNK1,> 20 µM
same,IC50,hRSK4(Kin.Dom.1-N-term),> 20 µM
same,IC50,hMARK1,> 20 µM
same,IC50,hJNK1,> 20 µM
same,change in lysine methylation of histone H3 or H4,[2],did not show any significant change
same,IC50,hRSK4(Kin.Dom.2-C-term),> 20 µM

# Reference: paper PMC4447944 (The Journal of Biological Chemistry, 2015)
